In assay [1] the test system is sonic hedgehog pathway. Briefly: Hedgehog pathway Gli-luciferase reporter assay, TM3 cells. Format: cell-based. Particulars: TM3 mouse Leydig cells. An excerpt:
(§1) Mouse (TM3: mouse Leydig cells; S12: mouse embryonic mesenchymal cells) and human (Daoy: human medulloblastoma cell; HepM: human embryonic palatal mesenchymal cell) cell lines are used to screen small molecules for their ability to modulate the activity of the sonic hedgehog pathway (Table 1, Table 2, and Table 3). Stable hedgehog pathway reporter cell lines are established by specific antibiotic selection following transfection of a reporter plasmid containing a luciferase gene located directly downstream from the gli promoter. Consequently, any observable changes in cellular luciferase activity may be attributed to changes in sonic hedgehog pathway activity in mouse and human cells, respectively, since gli is the major by-product of this pathway. To calculate activity, we generate an eleven point dose curve for each compound using 1:3 dilutions in 96 well assay plates. Each plate tested also contains low and high control to establish maximal pathway activation so to establish/compare a percentage activation of each tested compound (AMAX) on respective plates. Also we calculate EC50 values, or a concentration where the pathway will be exactly 50% activated, for each tested compound to determine potency. In these cell lines, compounds that register >20% AMAX values are considered active.
(§2) Stable hedgehog pathway reporter cell lines are established following specific antibiotic selection following transfection of a reporter plasmid In short, typically cells are plated in MicroTiter-plates at 10,000-20,000 cells per well, in growth media (containing 10%-20% FBS). After 48-72 hrs (HGL and DGL respectively) the media in the assay plates is switched to low-serum containing media (0.5% FBS). At that time compounds are added (at 1-5 μM) to the assay plates, in the presence or absence of hedgehog protein (octyl-modified version; 1-5 ng/ml). After another 24 hrs of incubation, the media from the assay plates is discarded and replaced with luciferase assay-mix. Subsequently, plates are incubated at RT for ˜15-30 mins and then read in a luminometer. [note: addition of the Hedgehog protein, although not critical, will sensitize the assay allowing the identification of weak actives].
On the technique in general: A reporter such as luciferase makes a cellular process visible.

Assay [2] deals with sonic hedgehog pathway. Briefly: Human hedgehog reporter assay Daoy-GliLuc (DGL). Format: cell-based. Particulars: Daoy human medulloblastoma cells, Gli-luciferase reporter; read-out: Daoy Avg. EC50.
Excerpt: as §1, §2

Where a name gives a salt, the structure may show the parent alone. Some results are limits rather than exact numbers.

Usually EC50 stands for the concentration needed to bring the measured effect to its halfway point.

For the compound `CN[C@H]1CC[C@@H](N(Cc2cc(-c3ccc(C(F)(F)F)cc3)ccc2OC)C(=O)c2sc3ccccc3c2Cl)CC1` [Compound 306, 3-Chloro-benzo[b]thiophene-2-carboxylic acid (4-methoxy-4′-trifluoromethyl-biphenyl-3-ylmethyl)-(4-methylamino-cyclohexyl)-amide trifluoroacetate], the EC50 is 50 to 250 nM in assay [1] and under 50 nM in assay [2].
The matching figures for `CN[C@H]1CC[C@@H](N(Cc2cc(-c3ccc(OC(F)(F)F)cc3)ccc2OC)C(=O)c2sc3ccccc3c2Cl)CC1` [Compound 307, 3-Chloro-benzo[b]thiophene-2-carboxylic acid (4-methoxy-4′-trifluoromethoxy-biphenyl-3-ylmethyl)-(4-methylamino-cyclohexyl)-amide hydrochloride]: under 50 nM and under 50 nM.
Taken in the same sequence, the figures for `CN[C@H]1CC[C@@H](N(Cc2cc(-c3ccc(Cl)cc3)ccc2OC)C(=O)c2sc3ccccc3c2Cl)CC1` [Compound 308, 3-Chloro-benzo[b]thiophene-2-carboxylic acid (4′-chloro-4-methoxy-biphenyl-3-ylmethyl)-(4-methylamino-cyclohexyl)-amide hydrochloride] were under 50 nM and under 50 nM.
Taken in the same sequence, the figures for `CCOc1ccc(-c2ccc(C(F)(F)F)cc2)cc1CN(C(=O)c1sc2ccccc2c1Cl)[C@H]1CC[C@@H](NC)CC1` [Compound 309, 3-Chloro-benzo[b]thiophene-2-carboxylic acid (4-ethoxy-4′-trifluoromethyl-biphenyl-3-ylmethyl)-(4-methylamino-cyclohexyl)-amide hydrochloride] were 50 to 250 nM and under 50 nM.
In the case of `CCOc1ccc(-c2ccc(OC)cc2)cc1CN(C(=O)c1sc2ccccc2c1Cl)[C@H]1CC[C@@H](NC)CC1` [Compound 312, 3-Chloro-benzo[b]thiophene-2-carboxylic acid (4-ethoxy-4′-methoxy-biphenyl-3-ylmethyl)-(4-methylamino-cyclohexyl)-amide hydrochloride], the EC50 in assay [2] lay within 50 to 250 nM.
With `CCOc1ccc(-c2ccccc2)cc1CN(C(=O)c1sc2ccccc2c1Cl)[C@H]1CC[C@@H](NC)CC1` [Compound 313, 3-Chloro-benzo[b]thiophene-2-carboxylic acid (4-ethoxy-biphenyl-3-ylmethyl)-(4-methylamino-cyclohexyl)-amide hydrochloride], the values for the EC50 in assay [1] and in assay [2] were 50 to 250 nM and under 50 nM, respectively.
Regarding `CN[C@H]1CC[C@@H](N(Cc2cc(-c3ccc(F)cc3)ccc2OC)C(=O)c2sc3ccccc3c2Cl)CC1` [Compound 314, 3-Chloro-benzo[b]thiophene-2-carboxylic acid (4′-fluoro-4-methoxy-biphenyl-3-ylmethyl)-(4-methylamino-cyclohexyl)-amide hydrochloride], the EC50 in assay [1] and in assay [2] was under 50 nM in each case.
As to `CN[C@H]1CC[C@@H](N(Cc2cc(-c3cnc(N(C)C)nc3)ccc2OC)C(=O)c2sc3ccccc3c2Cl)CC1` [Compound 321, 3-Chloro-benzo[b]thiophene-2-carboxylic acid [5-(2-dimethylamino-pyrimidin-5-yl)-2-methoxy-benzyl]-(4-methylamino-cyclohexyl)-amide dihydrochloride], the EC50 in assay [1] was in the range of 1000 to 2500 nM; in assay [2] it was 50 to 250 nM.
The matching figures for `CNc1ncc(-c2ccc(OC)c(CN(C(=O)c3sc4ccccc4c3Cl)[C@H]3CC[C@@H](NC)CC3)c2)cn1` [Compound 322, 3-Chloro-benzo[b]thiophene-2-carboxylic acid [2-methoxy-5-(2-methylamino-pyrimidin-5-yl)-benzyl]-(4-methylamino-cyclohexyl)-amide dihydrochloride]: 250 to 1000 nM and 50 to 250 nM.
The matching figures for `CN[C@H]1CC[C@@H](N(Cc2cc(-c3cnc(N)nc3)ccc2OC)C(=O)c2sc3ccccc3c2Cl)CC1` [Compound 323, 3-Chloro-benzo[b]thiophene-2-carboxylic acid [5-(2-amino-pyrimidin-5-yl)-2-methoxy-benzyl]-(4-methylamino-cyclohexyl)-amide dihydrochloride]: 50 to 250 nM and under 50 nM.
In the case of `CN[C@H]1CC[C@@H](N(Cc2cc(-c3cccc(C(C)=O)c3)ccc2OC)C(=O)c2sc3cccc(F)c3c2Cl)CC1` [Compound 363, 3-Chloro-4-fluoro-benzo[b]thiophene-2-carboxylic acid (3′-acetyl-4-methoxy-biphenyl-3-ylmethyl)-(4-methylamino-cyclohexyl)-amide hydrochloride], the EC50 in assay [1] and in assay [2] was under 50 nM in each case.
As to `CN[C@H]1CC[C@@H](N(Cc2cc(-c3cccc(C#N)c3)ccc2OC)C(=O)c2sc3cccc(F)c3c2Cl)CC1` [Compound 365, 3-Chloro-4-fluoro-benzo[b]thiophene-2-carboxylic acid (3′-cyano-4-methoxy-biphenyl-3-ylmethyl)-(4-methylamino-cyclohexyl)-amide hydrochloride], the EC50 in assay [1] and in assay [2] was under 50 nM in each case.
In turn, `CCOc1ccc(-c2cnc(N(C)C)nc2)cc1CN(C(=O)c1sc2ccccc2c1Cl)[C@H]1CC[C@H](NC)CC1` [Compound 401, 3-Chloro-benzo[b]thiophene-2-carboxylic acid [5-(2-dimethylamino-pyrimidin-5-yl)-2-ethoxy-benzyl]-(4-methylamino-cyclohexyl)-amide dihydrochloride] gave an EC50 in assay [1] of 1000 to 2500 nM.
Still for that read-out and setting: the value for `CN[C@H]1CC[C@H](N(Cc2cc(-c3ccnc(C(C)=O)c3)ccc2OC)C(=O)c2sc3c(F)ccc(F)c3c2Cl)CC1` [Compound 407, 3-Chloro-4,7-difluoro-benzo[b]thiophene-2-carboxylic acid [5-(2-acetyl-pyridin-4-yl)-2-methoxy-benzyl]-(4-methylamino-cyclohexyl)-amide dihydrochloride] was under 50 nM; that for `CN[C@H]1CC[C@H](N(Cc2cc(-c3ccc(OC)cc3)ccc2F)C(=O)c2sc3ccccc3c2Cl)CC1` [Compound 421, 3-Chloro-benzo[b]thiophene-2-carboxylic acid (4-fluoro-4′-methoxy-biphenyl-3-ylmethyl)-(4-methylamino-cyclohexyl)-amide trifluoroacetate] was 250 to 1000 nM.
`CN[C@H]1CC[C@H](N(Cc2cc(-c3ccc(C(F)(F)F)cc3)ccc2F)C(=O)c2sc3ccccc3c2Cl)CC1` [Compound 422, 3-Chloro-benzo[b]thiophene-2-carboxylic acid (4-fluoro-4′-trifluoromethyl-biphenyl-3-ylmethyl)-(4-methylamino-cyclohexyl)-amide trifluoroacetate] yielded a concentration giving a half-maximal response (EC50) in assay [1] of 250 to 1000 nM.
Turning to `CN[C@H]1CC[C@H](N(Cc2cc(-c3ccc(C)cc3)ccc2F)C(=O)c2sc3ccccc3c2Cl)CC1` [Compound 427, 3-Chloro-benzo[b]thiophene-2-carboxylic acid (4-fluoro-4′-methyl-biphenyl-3-ylmethyl)-(4-methylamino-cyclohexyl)-amide trifluoroacetate], the EC50 in assay [1] is 250 to 1000 nM.
Regarding `CN[C@H]1CC[C@H](N(Cc2cc(-c3ccc(Cl)cc3)ccc2F)C(=O)c2sc3ccccc3c2Cl)CC1` [Compound 428, 3-Chloro-benzo[b]thiophene-2-carboxylic acid (4′-chloro-4-fluoro-biphenyl-3-ylmethyl)-(4-methylamino-cyclohexyl)-amide trifluoroacetate], the EC50 in assay [1] lay within 250 to 1000 nM.
Take `CN[C@H]1CC[C@H](N(Cc2cc(-c3ccc(NC(C)=O)cc3)ccc2F)C(=O)c2sc3ccccc3c2Cl)CC1` [Compound 429, 3-Chloro-benzo[b]thiophene-2-carboxylic acid (4′-acetylamino-4-fluoro-biphenyl-3-ylmethyl)-(4-methylamino-cyclohexyl)-amide trifluoroacetate]: the EC50 in assay [1] fell in the range of 1000 to 2500 nM.
In turn, `CN[C@H]1CC[C@H](N(Cc2cc(-c3ccc(N(C)C(C)=O)cc3)ccc2F)C(=O)c2sc3ccccc3c2Cl)CC1` [Compound 430, 3-Chloro-benzo[b]thiophene-2-carboxylic acid [4′-(acetyl-methyl-amino)-4-fluoro-biphenyl-3-ylmethyl]-(4-methylamino-cyclohexyl)-amide trifluoroacetate] registered an EC50 in assay [1] of 1000 to 2500 nM.
In assay [1], `CN[C@H]1CC[C@H](N(Cc2cc(-c3ccc(NC=O)cc3)ccc2F)C(=O)c2sc3ccccc3c2Cl)CC1` [Compound 431, 3-Chloro-benzo[b]thiophene-2-carboxylic acid (4-fluoro-4′-formylamino-biphenyl-3-ylmethyl)-(4-methylamino-cyclohexyl)-amide trifluoroacetate] showed a half-maximal effective concentration (EC50) of 50 to 250 nM.
`CNc1ccc(-c2ccc(F)c(CN(C(=O)c3sc4ccccc4c3Cl)[C@H]3CC[C@H](NC)CC3)c2)cc1` [Compound 432, 3-Chloro-benzo[b]thiophene-2-carboxylic acid (4-fluoro-4′-methylamino-biphenyl-3-ylmethyl)-(4-methylamino-cyclohexyl)-amide dihydrochloride]: the concentration for a half-maximal effect (EC50) in assay [1] was 250 to 1000 nM.

Values taken from US20080182859A1 (Curis, Inc., priority 2006, published 2008).
